Read-outs that look alike come from different tables or passages of the source. Numbered stars: 1 amine (or outer) side, 2 acyl side, 3 side chain; on linkers, the order of the positions; unused ones are H or OH. Bridge positions count the residues as written; N and C are the ends. Square brackets hold non-standard residues; d marks the D form. Peptide text beside a SMILES is read from it. I, II: the chains in the order shown. Actinocin(9to1) = Cc1c2oc3c(C)ccc(C(=O)[*:1])c3nc-2c(C(=O)[*:2])c(N)c1=O; NMeV = CN[C@H](C(=O)O)C(C)C; Sar = CNCC(=O)O
How the values were obtained:
[1] = molecular target: T1, human FXR (Homo sapiens, UniProt Q96RI1); test: FXR-bla reporter gene assay, antagonist mode (CDCA-induced transactivation); settings: for FXR antagonist activity: FXR-bla assay, CDCA-induced
T1 sequence (Q96RI1 with tags, fused parts or gaps limits assumed): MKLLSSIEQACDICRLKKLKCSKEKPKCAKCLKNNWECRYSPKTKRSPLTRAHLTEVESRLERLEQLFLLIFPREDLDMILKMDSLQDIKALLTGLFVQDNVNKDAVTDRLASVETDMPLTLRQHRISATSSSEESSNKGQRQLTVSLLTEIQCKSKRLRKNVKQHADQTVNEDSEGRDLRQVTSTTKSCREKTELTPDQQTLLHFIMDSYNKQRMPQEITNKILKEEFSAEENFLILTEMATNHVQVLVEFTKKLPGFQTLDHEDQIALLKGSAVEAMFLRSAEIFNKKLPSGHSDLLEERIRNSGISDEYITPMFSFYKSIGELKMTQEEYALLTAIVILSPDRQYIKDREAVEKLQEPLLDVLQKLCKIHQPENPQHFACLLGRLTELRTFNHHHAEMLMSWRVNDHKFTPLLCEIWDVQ

[2] = molecular target: T1, human FXR; test: FXR-bla reporter gene assay, agonist mode (qHTS); settings: for FXR agonist activity: FXR-bla assay
[3] = tested on: FXR-UAS-bla HEK293T cells; test: Cell viability assay (CellTiter Glo) in the same well as FXR-bla
[4] = read-out: FXR antagonist mode IC50
[5] = read-out: FXR agonist mode EC50, Table S1, primary screening

Compound: CC[C@]1(O)CC[C@H]2[C@@H]3CCC4=CCCC[C@@H]4[C@H]3CC[C@@]21C [Ethylestrenol]
- FXR antagonist Efficacy [1]: 66 ± 11%
- FXR agonist EC50 ([2]; Table S3, FXR-active drugs): Inactive

Compound: CC(C)c1onc(-c2c(Cl)cccc2Cl)c1COc1ccc(/C=C/c2cccc(C(=O)O)c2)c(Cl)c1 [GW4064]
- Cytotoxicity IC50 ([3]; Table S1, primary screening): Inactive

Compound: Cc1c(F)c(F)c(COC(=O)[C@@H]2[C@H](/C=C(\Cl)C(F)(F)F)C2(C)C)c(F)c1F (racemic) [Tefluthrin]
- FXR antagonist mode Efficacy [1]: 46 ± 7
- IC50 ([1]; FXR antagonist mode IC50): 12.4 ± 2.01 µM
- FXR agonist mode EC50 ([2]; Table S1, primary screening): Inactive
- Cytotoxicity IC50 ([3]; Table S1, primary screening): Inactive

Compound: COc1cccc2c1C(=O)c1c(O)c3c(c(O)c1C2=O)C[C@@](O)(C(=O)CO)C[C@@H]3O[C@H]1C[C@H](N2CCO[C@H](OC)C2)[C@H](O)[C@H](C)O1 [Nemorubicin]
- Cell viability IC50 [3]: Inactive

Compound: Emamectin
- FXR antagonist mode Efficacy [1]: 64 ± 19%
- IC50 [1, 4]: 5.81 ± 2.68 µM
- FXR agonist mode Efficacy [2]: 56 ± 26%
- EC50 [2, 5]: 24.6 ± 8.97 µM
- Cytotoxicity Efficacy ([3]; Table S1, primary screening): 116 ± 14%
- IC50 ([3]; read-out: Cytotoxicity IC50, Table S1, primary screening): 7.54 ± 1.29 µM

Compound: COC(=O)C1=C(C)NC(C)=C(C(=O)OC(C)(C)CN(C)CCC(c2ccccc2)c2ccccc2)C1c1cccc([N+](=O)[O-])c1 (stereo not drawn) [Lercanidipine]
- IC50 [1]: 15.5 ± 9.59 µM
- FXR antagonist Efficacy ([1]; Table S3, 50 µM CDCA): -71 ± 10%
- FXR agonist mode EC50 ([2]; Table S1, primary screening): Inactive
- Cytotoxicity IC50 ([3]; Table S1, primary screening): Inactive

Compound: CCOC(=O)[C@H](CCc1ccccc1)N[C@H]1CCc2ccccc2N(CC(=O)O)C1=O [Benazepril]
- Cytotoxicity Efficacy ([3]; Table S3): 87 ± 27%

Compound: AM580
- FXR antagonist mode IC50 [1]: Inactive
- FXR agonist mode Efficacy [2]: 68 ± 37
- FXR agonist activity [2]: selectively induced transactivation of FXR
- EC50 [2, 5]: 45.4 ± 3.07 µM
- Cytotoxicity IC50 ([3]; Table S1, primary screening): Inactive

Compound: Cc1c2oc3c(C)ccc(C(=O)N[C@@H]4C(=O)N[C@H](C(C)C)C(=O)N5CCC[C@H]5C(=O)N(C)CC(=O)N(C)[C@@H](C(C)C)C(=O)O[C@@H]4C)c3nc-2c(C(=O)N[C@@H]2C(=O)N[C@H](C(C)C)C(=O)N3CCC[C@H]3C(=O)N(C)CC(=O)N(C)[C@@H](C(C)C)C(=O)O[C@@H]2C)c(N)c1=O [Actinomycin D] (I: T[dV]P[Sar][NMeV] / II: T[dV]P[Sar][NMeV]; ester I:1-I:C, II:1-II:C; linker I:N-II:N via Actinocin(9to1))
- Cell viability IC50 [3]: Inactive

Compound: CC(=O)O[C@@]12CO[C@@H]1C[C@H](O)[C@@]1(C)C(=O)[C@H](O)C3=C(C)[C@@H](OC(=O)[C@H](O)[C@@H](NC(=O)OC(C)(C)C)c4ccccc4)C[C@@](O)([C@@H](OC(=O)c4ccccc4)[C@H]21)C3(C)C [Docetaxel]
- IC50 [1]: 0.008 ± 0.005 µM
- FXR antagonist activity [1]: antagonistic effects
- FXR antagonist mode Efficacy ([1]; Table S1, primary screening, 50 µM CDCA): 35 ± 4%
- FXR agonist mode EC50 ([2]; Table S1, primary screening): Inactive
- Cytotoxicity IC50 ([3]; Table S1, primary screening): Inactive

Compound: O=C(Nc1ccccc1)c1ccccc1SSc1ccccc1C(=O)Nc1ccccc1 [DTBBA, 2,2-Dithiobisbenzanilide]
- FXR antagonist mode Efficacy [1]: 51 ± 17
- IC50 [1, 4]: 18 ± 8.46 µM
- FXR agonist mode Efficacy [2]: 31 ± 13
- EC50 [2, 5]: 24.6 ± 15.3 µM

Compound: C[C@]12CC[C@@H]3c4ccc(O)cc4C[C@@H](CCCCCCCCC[S+]([O-])CCCC(F)(F)C(F)(F)F)[C@H]3[C@@H]1CC[C@@H]2O (stereo partly drawn) [Fulvestrant]
- Cytotoxicity IC50 ([3]; Table S1, primary screening): Inactive

Compound: CCOc1ccc2nc3cc(N)ccc3c(N)c2c1 [Ethacridine]
- FXR antagonist Efficacy ([1]; Table S3, 50 µM CDCA): 75 ± 17%
- EC50 [2]: 21.4 ± 12 µM
- FXR agonist Efficacy ([2]; Table S3): 31 ± 11%

Compound: CC(C)=CC1C(C(=O)OCc2cccc(Oc3ccccc3)c2)C1(C)C (stereo not drawn) [Phenothrin]
- FXR antagonist mode Efficacy [1]: 27 ± 7
- IC50 [1]: 25.4 ± 11.8 µM
- FXR agonist mode EC50 ([2]; Table S1, primary screening): Inactive
- Cytotoxicity IC50 ([3]; Table S1, primary screening): Inactive

Compound: CC(C)[C@H](Nc1ccc(C(F)(F)F)cc1Cl)C(=O)OC(C#N)c1cccc(Oc2ccccc2)c1 (stereo partly drawn) [Fluvalinate]
- FXR antagonist mode Efficacy [1]: 53 ± 3
- IC50 ([1]; FXR antagonist mode IC50): 30.3 ± 12 µM
- FXR agonist mode EC50 ([2]; Table S1, primary screening): Inactive
- Cytotoxicity IC50 ([3]; Table S1, primary screening): Inactive

Compound: CO/N=C1\C[C@]2(C[C@@H]3C[C@@H](C/C=C(\C)C[C@@H](C)/C=C/C=C4\CO[C@@H]5[C@H](O)C(C)=C[C@@H](C(=O)O3)[C@]45O)O2)O[C@H](/C(C)=C/C(C)C)[C@H]1C [Moxidectin, moxidectin]
- FXR agonist activity [2]: did not show agonist activity

Compound: C#C[C@]1(O)CC[C@H]2[C@@H]3CCc4cc(O)ccc4[C@H]3CC[C@@]21C [Ethinylestradiol]
- Cytotoxicity Efficacy ([3]; Table S1, primary screening): 36 ± 47%
- Cytotoxicity Efficacy ([3]; Table S3): 36 ± 47%

Compound: Cc1c(COC(=O)[C@@H]2[C@H](/C=C(\Cl)C(F)(F)F)C2(C)C)cccc1-c1ccccc1 (racemic) [Bifenthrin]
- FXR antagonist mode Efficacy [1]: 50 ± 16
- IC50 ([1]; FXR antagonist mode IC50): 11.3 ± 4.58 µM
- FXR antagonist activity [1]: highly selective FXR antagonists
- FXR agonist mode EC50 ([2]; Table S1, primary screening): Inactive
- Cytotoxicity IC50 ([3]; Table S1, primary screening): Inactive
